Values quoted from earlier work in patent US8728493B2, “Polymer based compositions and conjugates of non-steroidal anti-inflammatory drugs” (Nektar Therapeutics, priority 2005, dated 2014).

Details: non-conjugated drug; conditions not stated

Compound: O=C(c1ccccc1)c1ccc2n1CCC2C(=O)O (stereo not shown) [non-conjugated ketorolac, ketorolac]
- half-life of non-conjugated ketorolac: approximately 2 hours
